From patent US9284304B2, “Substituted pyrimidines as toll-like receptor modulators” (JANSSEN SCIENCES IRELAND UC, priority 2012, dated 2016)

Key:
human TLR8 (hTLR8) = molecular target: T1, human TLR8 (hTLR8) (Homo sapiens, UniProt Q9NR97); experiment: TLR8 cellular NFκB-luc reporter assay in transiently transfected HEK293 cells; format: cell-based; parameters: unit not given here; conditions: lowest effective concentration, wild type TLR8, 48 hours incubation
T1 construct: expressed in transfected cells; host or cells: HEK293
T1 sequence (Q9NR97 27-1041): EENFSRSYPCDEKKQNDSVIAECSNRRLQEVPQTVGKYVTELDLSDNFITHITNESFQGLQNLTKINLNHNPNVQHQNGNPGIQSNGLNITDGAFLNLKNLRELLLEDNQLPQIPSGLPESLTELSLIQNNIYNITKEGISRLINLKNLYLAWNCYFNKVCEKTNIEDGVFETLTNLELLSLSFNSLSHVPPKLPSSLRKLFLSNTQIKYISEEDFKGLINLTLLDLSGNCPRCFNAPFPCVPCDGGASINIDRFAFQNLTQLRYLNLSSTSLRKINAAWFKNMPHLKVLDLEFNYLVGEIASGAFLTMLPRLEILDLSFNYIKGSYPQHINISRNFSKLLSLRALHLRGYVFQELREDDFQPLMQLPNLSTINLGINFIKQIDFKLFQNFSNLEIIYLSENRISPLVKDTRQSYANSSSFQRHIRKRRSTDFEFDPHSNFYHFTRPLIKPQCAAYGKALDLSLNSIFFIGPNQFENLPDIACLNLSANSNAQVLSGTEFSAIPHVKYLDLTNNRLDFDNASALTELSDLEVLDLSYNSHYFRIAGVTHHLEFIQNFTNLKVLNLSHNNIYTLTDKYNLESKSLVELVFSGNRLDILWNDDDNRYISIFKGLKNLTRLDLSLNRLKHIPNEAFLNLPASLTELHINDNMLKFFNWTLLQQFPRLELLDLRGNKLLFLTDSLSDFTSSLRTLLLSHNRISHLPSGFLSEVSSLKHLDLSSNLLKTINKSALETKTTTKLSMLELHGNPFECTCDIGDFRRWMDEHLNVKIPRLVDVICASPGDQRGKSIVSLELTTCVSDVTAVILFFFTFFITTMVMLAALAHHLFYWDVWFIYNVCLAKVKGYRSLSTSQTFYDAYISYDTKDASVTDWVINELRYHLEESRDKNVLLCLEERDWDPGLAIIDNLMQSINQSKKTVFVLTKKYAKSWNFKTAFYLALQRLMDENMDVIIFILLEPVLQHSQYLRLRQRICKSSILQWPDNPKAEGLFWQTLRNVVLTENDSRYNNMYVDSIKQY
Experimental: (§1) The ability of compounds to activate human TLR7 (hTLR7) and/or TLR8 (hTLR8) was assessed in a cellular reporter assay using HEK293 cells transiently transfected with a TLR7 or TLR8 expression vector and NFκB-luc reporter construct. In one instance the TLR expression construct expresses the respective wild type sequence or a mutant sequence comprising a deletion in the second leucine-rich repeat of the TLR. […] Briefly, HEK293 cells were grown in culture medium (DMEM supplemented with 10% FCS and 2 mM Glutamine). For transfection of cells in 10 cm dishes, cells were detached with Trypsin-EDTA, transfected with a mix of CMV-TLR7 or TLR8 plasmid (750 ng), NFκB-luc plasmid (375 ng) and a transfection reagent and incubated overnight at 37° C. in a humidified 5% CO2 atmosphere. Transfected cells were then detached with Trypsin-EDTA, washed in PBS and resuspended in medium to a density of 1.67×10^5 cells/mL. Thirty microliters of cells were then dispensed into each well in 384-well plates, where 10 μL of compound in 4% DMSO was already present. Following 48 hours incubation at 37° C., 5% CO2, the luciferase activity was determined by adding 15 μl of Steady Lite Plus substrate (Perkin Elmer) to each well and readout performed on a ViewLux ultraHTS microplate imager (Perkin Elmer). Dose response curves were generated from measurements performed in quadruplicates. Lowest effective concentrations (LEC) values, defined as the concentration that induces an effect which is at least two fold above the standard deviation of the assay, were determined for each compound.

human TLR7 (hTLR7) = molecular target: T2, human TLR7 (hTLR7) (Homo sapiens, UniProt Q9NYK1); experiment: TLR7 cellular NFκB-luc reporter assay in transiently transfected HEK293 cells; format: cell-based; parameters: unit not given here; conditions: lowest effective concentration, wild type TLR7, 48 hours incubation
T2 construct: expressed in transfected cells; host or cells: HEK293
T2 sequence (Q9NYK1 27-1049): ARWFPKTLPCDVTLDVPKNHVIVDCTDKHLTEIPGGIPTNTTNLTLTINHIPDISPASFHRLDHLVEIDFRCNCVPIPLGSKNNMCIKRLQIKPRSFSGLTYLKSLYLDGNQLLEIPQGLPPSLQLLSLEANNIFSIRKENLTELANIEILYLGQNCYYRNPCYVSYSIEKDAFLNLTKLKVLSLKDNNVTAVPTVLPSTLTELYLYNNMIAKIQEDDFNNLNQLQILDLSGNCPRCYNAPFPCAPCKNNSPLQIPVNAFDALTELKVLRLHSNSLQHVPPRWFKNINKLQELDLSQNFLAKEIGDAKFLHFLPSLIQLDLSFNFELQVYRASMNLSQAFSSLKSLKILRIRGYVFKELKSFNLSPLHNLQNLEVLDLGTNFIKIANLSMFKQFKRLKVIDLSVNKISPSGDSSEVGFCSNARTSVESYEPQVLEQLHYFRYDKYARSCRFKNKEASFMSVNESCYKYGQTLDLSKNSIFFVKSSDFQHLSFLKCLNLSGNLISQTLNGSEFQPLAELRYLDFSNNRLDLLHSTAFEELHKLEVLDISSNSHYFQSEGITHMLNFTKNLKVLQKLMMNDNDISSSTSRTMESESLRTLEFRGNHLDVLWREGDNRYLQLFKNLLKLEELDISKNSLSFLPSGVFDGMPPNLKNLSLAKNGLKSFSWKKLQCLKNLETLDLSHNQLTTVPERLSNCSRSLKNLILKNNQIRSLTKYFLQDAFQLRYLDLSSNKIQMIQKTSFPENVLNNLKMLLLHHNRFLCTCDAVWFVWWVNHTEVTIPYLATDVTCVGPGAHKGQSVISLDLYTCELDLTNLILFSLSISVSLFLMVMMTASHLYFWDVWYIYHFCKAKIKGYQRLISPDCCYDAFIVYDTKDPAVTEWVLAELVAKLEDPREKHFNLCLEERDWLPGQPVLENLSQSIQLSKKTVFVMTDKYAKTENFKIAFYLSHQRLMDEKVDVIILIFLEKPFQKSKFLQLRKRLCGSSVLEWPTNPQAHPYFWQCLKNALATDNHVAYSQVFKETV
Experimental: as §1

| SMILES | hTLR8 wt (LEC) (human TLR8 (hTLR8)) | hTLR7 wt (LEC) (human TLR7 (hTLR7)) |
| --- | --- | --- |
| CCCCNc1nc(N)ncc1CC.Cl [Example 1] | 1.3 | 2.4 |
| CCCCNc1nc(N)ncc1CCc1ccccc1.Cl [Example 2] | 6.5 | 6.7 |
| CCCCNc1nc(N)ncc1CCc1ccc(OC)cc1OC.Cl [Example 3] | 12 | 2.4 |
| CCCCNc1nc(N)ncc1CCc1ccccc1OC.Cl [Example 4] | 13 | 5 |

Results, then the compound that gave them:

| hTLR8 wt (LEC) (human TLR8 (hTLR8)) | hTLR7 wt (LEC) (human TLR7 (hTLR7)) | SMILES |
| --- | --- | --- |
| 1.4 | 1.2 | CCCCNc1nc(N)ncc1CCc1cccnc1.Cl [Example 5] |
| 1.6 | 0.6 | CCCCNc1nc(N)ncc1CCc1ccccn1.Cl [Example 6] |
| 1.2 | 0.5 | CCCCNc1nc(N)ncc1CCc1ccc2ccccc2n1.Cl [Example 7] |
| 3.6 | 8.1 | CCCCNc1nc(N)ncc1CCc1cccs1.Cl [Example 8] |
